Assay results as given in paper PMC7473772 (eLife, 2020).
Several values for one entry are separate records, joined by “and”; a condition that tells them apart may be missing. Identical values can stand only once. Like-named read-outs stand apart in the source and are kept apart here.

Columns and labels:
[1] = system: tbaqp2/tbaqp3 null cells expressing TbAQP2^S131P/S263A; type: cell-based, Trypanosoma brucei brucei
[2] = system: tbaqp2/tbaqp3 null cells expressing TbAQP2^I110W; type: cell-based, Trypanosoma brucei brucei
[3] = system: tbaqp2/tbaqp3 null cells expressing TbAQP2^L264R; type: cell-based, Trypanosoma brucei brucei
[4] = system: tbaqp2/tbaqp3 null cells expressing TbAQP2^I110W/L264R; type: cell-based, Trypanosoma brucei brucei
[5] = system: tbaqp2/tbaqp3 null cells expressing TbAQP2 L218W; test: microbe, parasite or virus in culture; type: cell-based, Trypanosoma brucei brucei
[6] = system: tbaqp2/tbaqp3 null cells expressing TbAQP3^W102I/R256L; type: cell-based, Trypanosoma brucei brucei
[7] = system: tbaqp1-2-3 null cells expressing TbAQP2 position 84, 118 and 218 Trp and Met mutants; test: Drug sensitivity assay (resazurin), pentamidine and SHAM; type: cell-based, Trypanosoma brucei brucei
TbAQP2^I190T = target: T1, TbAQP2^I190T (Trypanosoma brucei brucei, UniProt Q6ZXT3, I190T); test: cell-based
T1 sequence (Q6ZXT3 1-312 I190T): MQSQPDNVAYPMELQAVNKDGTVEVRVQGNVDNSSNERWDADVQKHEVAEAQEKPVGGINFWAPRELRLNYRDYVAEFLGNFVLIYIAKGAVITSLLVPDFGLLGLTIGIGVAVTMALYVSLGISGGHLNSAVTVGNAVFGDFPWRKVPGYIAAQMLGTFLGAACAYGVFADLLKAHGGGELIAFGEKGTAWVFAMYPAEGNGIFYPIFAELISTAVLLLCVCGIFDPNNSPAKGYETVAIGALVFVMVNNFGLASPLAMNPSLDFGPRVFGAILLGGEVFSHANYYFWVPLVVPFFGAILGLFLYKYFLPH

TbAQP2 L118W = TbAQP2 L118W (Trypanosoma brucei brucei, UniProt Q6ZXT3, L118W); test: [3H]-pentamidine transport; type: cell-based; conditions: AQP2 mutant L118W; n=6
[8] = Fig. 3A, exp AQP038-AQP041, AQP2 mutant I190T

Chain of TbAQP2 L118W (Q6ZXT3 whole entry L118W): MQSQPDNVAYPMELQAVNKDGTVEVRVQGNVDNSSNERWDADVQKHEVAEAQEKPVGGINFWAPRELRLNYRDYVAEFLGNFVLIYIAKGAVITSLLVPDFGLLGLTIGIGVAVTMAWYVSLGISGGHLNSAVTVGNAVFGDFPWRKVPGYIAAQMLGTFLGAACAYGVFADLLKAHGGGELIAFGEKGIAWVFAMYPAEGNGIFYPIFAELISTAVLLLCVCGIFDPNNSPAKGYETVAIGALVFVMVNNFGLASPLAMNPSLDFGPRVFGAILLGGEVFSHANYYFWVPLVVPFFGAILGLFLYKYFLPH

N=C(N)c1ccc(OCCCCCOc2ccc(C(=N)N)cc2)cc1 [Pentamidine]
EC50, percent of AQP2/3 null EC50 [1]: 1.92% | EC50, percent of AQP2/3 null EC50 [2]: 122.13% | EC50, percent of AQP2/3 null EC50 [3]: 126.58% | EC50 as percent of AQP2/3 null EC50, MEAN [4]: 101.41% | EC50 ([5]; Trypanosoma brucei, read-out: Alamar blue EC50, MEAN): 0.00439 µM | EC50 ([5]; Trypanosoma brucei, read-out: Alamar blue EC50, single repeats): 0.004 µM | EC50 ([5]; Trypanosoma brucei, read-out: EC50 AVG): 0.0044 µM | EC50 ([5]; read-out: Alamar blue EC50, single repeats): 0.0039 µM and 0.0053 µM | EC50 as percent of AQP2/3 null EC50, MEAN [6]: 83.83% | EC50 ([7]; +L84M in aqp1-3 triple KO, read-out: Alamar blue EC50, single repeats): 0.0008 µM and 0.0009 µM | EC50 ([7]; +L84W in aqp1-3 triple KO, read-out: Alamar blue EC50, single repeats): 0.0187 µM and 0.0153 µM | EC50 ([7]; +L84W/L118W in aqp1-3 triple KO, read-out: Alamar blue EC50, single repeats): 0.0657 µM | EC50 ([7]; +L118M in aqp1-3 triple KO, read-out: Alamar blue EC50, single repeats): 0.0278 µM and 0.0294 µM | EC50 ([7]; +L118W in aqp1-3 triple KO, read-out: Alamar blue EC50, single repeats): 0.0271 µM and 0.0258 µM | EC50 ([7]; +L218W in aqp1-3 triple KO, read-out: Alamar blue EC50, single repeats): 0.0039 µM and 0.0053 µM | EC50 ([7]; Trypanosoma brucei, +L84M in aqp1-3 triple KO, 3 repeats, read-out: Alamar blue EC50, MEAN): 0.00077 µM | EC50 ([7]; Trypanosoma brucei, +L84M in aqp1-3 triple KO, read-out: Alamar blue EC50, single repeats): 0.00065 µM | EC50 ([7]; Trypanosoma brucei, +L84W in aqp1-3 triple KO, 3 repeats, read-out: Alamar blue EC50, MEAN): 0.0161 µM | EC50 ([7]; Trypanosoma brucei, +L84W in aqp1-3 triple KO, read-out: Alamar blue EC50, single repeats): 0.0144 µM | EC50 ([7]; Trypanosoma brucei, +L84W/L118W in aqp1-3 triple KO, read-out: Alamar blue EC50, single repeats): 0.0534 µM | EC50 ([7]; Trypanosoma brucei, +L118M in aqp1-3 triple KO, 3 repeats, read-out: Alamar blue EC50, MEAN): 0.028 µM | EC50 ([7]; Trypanosoma brucei, +L118M in aqp1-3 triple KO, read-out: Alamar blue EC50, single repeats): 0.0268 µM | EC50 ([7]; Trypanosoma brucei, +L118W in aqp1-3 triple KO, 3 repeats, read-out: Alamar blue EC50, MEAN): 0.0266 µM | EC50 ([7]; Trypanosoma brucei, +L118W in aqp1-3 triple KO, read-out: Alamar blue EC50, single repeats): 0.0269 µM | EC50 ([7]; Trypanosoma brucei, +L218M in aqp1-3 triple KO, 3 repeats, read-out: Alamar blue EC50, MEAN): 0.00063 µM | EC50 ([7]; Trypanosoma brucei, +L218W in aqp1-3 triple KO, 3 repeats, read-out: Alamar blue EC50, MEAN): 0.00439 µM | EC50 ([7]; Trypanosoma brucei, +L218W in aqp1-3 triple KO, read-out: Alamar blue EC50, single repeats): 0.004 µM | IC50 (TbAQP2^I190T): 0.0309 ± 0.0122 µM | Pentamidine transport rate as percent of +AQP2-WT, AVG (TbAQP2^I190T; [8]): 2.728% | Pentamidine transport rate, AVG (TbAQP2^I190T; [8]): 0.0008657 pmol/10E7 cells/s | Pentamidine transport rate, single experiments (TbAQP2^I190T; [8]): 0.0007167 pmol/10E7 cells/s and 0.001156 pmol/10E7 cells/s and 0.0009528 pmol/10E7 cells/s and 0.0006372 pmol/10E7 cells/s | Pentamidine transport rate AVG (TbAQP2 L118W): 0.0006283 pmol/10E7 cells/s
